Test results from patent US4330542A, “N(Sulfonyl)anilines for treating angina pectoris” (Sanofi, priority 1979, dated 1982).

Key:
[1] = Heart-rate in anaesthetized atropinized dogs after intravenous injection; format: in vivo; conditions: anaesthetized atropinized dog, 10 mg/kg intravenous
Experimental: (§1) The pharmacological investigation was carried out on anaesthetized dogs (30 mg/kg I.V. of sodium pentobarbital) having previously received an intravenous dose of 1 mg/kg of atropine sulphate.
(§2) The substance to be tested was given by an intravenous injection lasting two minutes after which the behaviour of both heart-rate and blood-pressure was observed over a certain period of time. An investigation was then carried out to detect any antiadrenergic properties. The compound listed hereunder were tested, in most cases in the form of pharmaceutically acceptable acid addition salts: […]

[2] = tested on: α-system; test: Inhibitory effect on the α-system: reduction of epinephrine-increased blood-pressure in the atropinized dog; format: in vivo; conditions: anaesthetized atropinized dog, 10 mg/kg intravenous
Experimental: (§3) A dose of epinephrine, sufficient to produce a stable increase in blood-pressure was administered to a dog anaesthetized with sodium pentobarbital which had previously received an intravenous injection of 1 mg/kg of atropine sulphate. The operation was repeated several times and the blood-pressure obtained was noted. When the latter had returned to its normal level, the animal was given an intravenous dose of 10 mg/kg of the compound to be tested followed by the same dose as above of epinephrine.

[3] = tested on: β-system; test: Antiadrenergic effect on the β-system: reduction of isoprenaline-increased heart-rate in the dog; format: in vivo; conditions: anaesthetized atropinized dog, same method as epinephrine test (10 mg/kg intravenous)
Experimental: as §3
The antiadrenergic effects of the compounds of the invention on the β-system were also studied, by determining the degree to which they reduced isoprenaline-increased heart-rate. The same method as above was used.

[4] = Blood-pressure in anaesthetized atropinized dogs after intravenous injection; format: in vivo; conditions: anaesthetized atropinized dog, 10 mg/kg intravenous
Experimental: as §1, §2

[5] = tested on: α-system; test: Inhibitory effect on the α-system: reduction of epinephrine-increased blood-pressure in the atropinized dog; format: in vivo; conditions: anaesthetized atropinized dog, dose as low as 2 mg/kg
[6] = Acute toxicity in the rat, intravenous route; conditions: in vivo
Experimental: Acute toxicity tests were also carried out on the rat, by intravenous route.

## C=CCOc1ccccc1N(CC(O)CNC(C)(C)C)S(=O)(=O)c1ccc(OC)cc1 (centres unmarked) [Compound 14, 2-Allyloxy-N-(3-tert-butylamino-2 hydroxy-propyl)-N-(4-methoxy-benzenesulphonyl)-aniline]
[1]
  reduction in heart-rate: marked and long-lasting reduction in heart-rate
[2]
  reduction of epinephrine-induced arterial hypertension: reduced, at least partially, the epinephrine-induced arterial hypertension
[3]
  reduction in isoprenaline-increased heart-rate: marked reduction in the isoprenaline-increased heart-rate

## C=CCOc1ccccc1N(CC(O)CN1CCN(c2ccc(F)cc2)CC1)S(C)(=O)=O (centres unmarked) [Compound 23, 2-Allyloxy-N-[3-(4-(4-fluoro-phenyl)-1-piperazinyl)-2-hydroxy-propyl]-N-methylsulphonyl-aniline]
[4]
  reduction in blood-pressure: marked and constant reduction in blood-pressure
[2]
  reduction of epinephrine-induced arterial hypertension: reduced, at least partially, the epinephrine-induced arterial hypertension

## C=CCOc1ccccc1N(CC(O)CN1CCN(c2ccccc2OC)CC1)S(C)(=O)=O (centres unmarked) [Compound 30, 2-Allyloxy-N-[2-hydroxy-3-(4-(2-methoxy-phenyl)-1-piperazinyl)-propyl]-N-methylsulphonyl-aniline]
[4]
  reduction in blood-pressure: marked and constant reduction in blood-pressure
[2]
  reduction of epinephrine-induced arterial hypertension: reduced, at least partially, the epinephrine-induced arterial hypertension
[3]
  reduction in isoprenaline-increased heart-rate: marked reduction in the isoprenaline-increased heart-rate
[5]
  reduction of epinephrine-induced arterial hypertension at low dose: Long-lasting and total reduction

## C=CCOc1ccccc1N(CC(O)CN1CCN(Cc2ccccc2)CC1)S(=O)(=O)c1ccc(C)cc1 (centres unmarked) [Compound 40, 2-Allyloxy-N-[3-(4-benzyl-1-piperazinyl)-2-hydroxy-propyl]-N-(4-methylbenzene-sulphonyl)-aniline]
[1]
  reduction in heart-rate: marked and long-lasting reduction in heart-rate
[4]
  reduction in blood-pressure: marked and constant reduction in blood-pressure
[2]
  reduction of epinephrine-induced arterial hypertension: reduced, at least partially, the epinephrine-induced arterial hypertension
[3]
  reduction in isoprenaline-increased heart-rate: marked reduction in the isoprenaline-increased heart-rate
[6]
  LD50: 12 mg/kg

## C=CCOc1ccccc1N(CC(O)CN1CCN(c2ccccn2)CC1)S(=O)(=O)c1ccc(OC)cc1 (centres unmarked) [Compound 53, 2-Allyloxy-N-[2-hydroxy-3-(4-(2-pyridyl)-1-piperazinyl)-propyl]-N-(4-methoxy-benzenesulphonyl)-aniline]
[4]
  reduction in blood-pressure: marked and constant reduction in blood-pressure
[2]
  reduction of epinephrine-induced arterial hypertension: reduced, at least partially, the epinephrine-induced arterial hypertension

## C=CCOc1ccccc1N(CC(O)CN1CCN(c2ccccc2F)CC1)S(=O)(=O)c1ccc(OC)cc1 (centres unmarked) [Compound 57, 2-Allyloxy-N-[2-hydroxy-3-(4-(2-fluoro-phenyl)-1-piperazinyl)-propyl]-N-(4-methoxy-benzenesulphonyl)-aniline]
[1]
  reduction in heart-rate: marked and long-lasting reduction in heart-rate
[2]
  reduction of epinephrine-induced arterial hypertension: reduced, at least partially, the epinephrine-induced arterial hypertension

## CS(=O)(=O)N(CC(O)CN1CCN(c2ccccc2Cl)CC1)c1ccc(Cl)c(Cl)c1 (centres unmarked) [Compound 75, 3,4-Dichloro-N-[3-(4-(2-chloro-phenyl)-1-piperazinyl)-2-hydroxy-propyl]-N-methylsulphonyl-aniline]
[4]
  reduction in blood-pressure: marked and constant reduction in blood-pressure
[2]
  reduction of epinephrine-induced arterial hypertension: reduced, at least partially, the epinephrine-induced arterial hypertension

## COc1ccccc1N1CCN(CC(O)CN(c2ccc(Cl)c(Cl)c2)S(C)(=O)=O)CC1 (centres unmarked) [Compound 77, 3,4-Dichloro-N-[2-hydroxy-3-(4-(2-methoxy-phenyl)-1-piperazinyl)-propyl]-N-methylsulphonyl-aniline]
[1]
  reduction in heart-rate: marked and long-lasting reduction in heart-rate
[4]
  reduction in blood-pressure: marked and constant reduction in blood-pressure
[2]
  reduction of epinephrine-induced arterial hypertension: reduced, at least partially, the epinephrine-induced arterial hypertension

## COc1ccc(S(=O)(=O)N(CC(O)CN2CCN(c3ccc(Cl)cc3)CC2)c2ccc(Cl)c(Cl)c2)cc1 (centres unmarked) [Compound 84, 3,4-Dichloro-N-[3-(4-(4-chloro-phenyl)-1-piperazinyl)-2-hydroxy-propyl]-N-(4-methoxy-benzenesulphonyl)-aniline]
[1]
  reduction in heart-rate: marked and long-lasting reduction in heart-rate
[2]
  reduction of epinephrine-induced arterial hypertension: reduced, at least partially, the epinephrine-induced arterial hypertension

## CC(=O)Nc1ccc(N(CC(O)CN2CCN(c3ccccc3)CC2)S(C)(=O)=O)cc1 (centres unmarked) [Compound 88, 4-Acetylamino-N-[2-hydroxy-3-(4-phenyl-1-piperazinyl)-propyl]-N-methylsulphonyl-aniline]
[4]
  reduction in blood-pressure: marked and constant reduction in blood-pressure
[2]
  reduction of epinephrine-induced arterial hypertension: reduced, at least partially, the epinephrine-induced arterial hypertension
[3]
  reduction in isoprenaline-increased heart-rate: marked reduction in the isoprenaline-increased heart-rate

## COc1ccccc1N1CCN(CC(O)CN(c2ccc(NC(C)=O)cc2)S(C)(=O)=O)CC1 (centres unmarked) [Compound 90, 4-Acetylamino-N-[2-hydroxy-3-(4-(2-methoxy-phenyl)1-piperazinyl)-2-hydroxy-propyl]-N-methyl-sulphonyl-aniline]
[4]
  reduction in blood-pressure: marked and constant reduction in blood-pressure
[2]
  reduction of epinephrine-induced arterial hypertension: reduced, at least partially, the epinephrine-induced arterial hypertension

## CC(=O)Nc1ccc(N(CC(O)CN2CCN(c3ccccc3)CC2)S(=O)(=O)c2ccc(C)cc2)cc1 (centres unmarked) [Compound 91, 4-Acetylamino-N-[2-hydroxy-3-(4-phenyl-1-piperazinyl)-propyl]-N-(4-methyl-benzenesulphonyl)-aniline]
[1]
  reduction in heart-rate: marked and long-lasting reduction in heart-rate
[4]
  reduction in blood-pressure: marked and constant reduction in blood-pressure
[2]
  reduction of epinephrine-induced arterial hypertension: reduced, at least partially, the epinephrine-induced arterial hypertension

## COc1ccccc1N1CCN(CC(O)CN(c2ccc(NC(C)=O)cc2)S(=O)(=O)c2ccc(C)cc2)CC1 (centres unmarked) [Compound 94, 4-Acetylamino-N-[2-hydroxy-3-(4-(2-methoxy-phenyl)-1-piperazinyl)-propyl]-N-(4-methyl-benzenesulphonyl)-aniline]
[1]
  reduction in heart-rate: marked and long-lasting reduction in heart-rate
[4]
  reduction in blood-pressure: marked and constant reduction in blood-pressure
[2]
  reduction of epinephrine-induced arterial hypertension: reduced, at least partially, the epinephrine-induced arterial hypertension

## CC(=O)Nc1ccc(N(CC(O)CN2CCN(c3ccccc3Cl)CC2)S(=O)(=O)c2ccc(C)cc2)cc1 (centres unmarked) [Compound 95, 4-Acetylamino-N-[3-(4-(2-chloro-phenyl)-1-piperazinyl)-2-hydroxy-propyl]-N-(4-methyl-benzenesulphonyl)-aniline]
[4]
  reduction in blood-pressure: marked and constant reduction in blood-pressure

## COc1ccccc1N1CCN(CC(O)CN(c2ccc(CC(N)=O)cc2)S(=O)(=O)c2ccc(C)cc2)CC1 (centres unmarked) [Compound 105, N-[2-hydroxy-3-(4-(2-methoxy-phenyl)-1-piperazino)-propyl]-N-(4-methyl-benzenesulphonyl)-4-amino-phenylacetamide]
[4]
  reduction in blood-pressure: marked and constant reduction in blood-pressure
[2]
  reduction of epinephrine-induced arterial hypertension: reduced, at least partially, the epinephrine-induced arterial hypertension

## N-[2-hydroxy-3-(4-(2-methoxy-phenyl)-1-piperazinyl)-propyl]-N-methylsulphonyl-4-amino-phenylacetamide [Compound 102]
[1]
  reduction in heart-rate: marked and long-lasting reduction in heart-rate
[4]
  reduction in blood-pressure: marked and constant reduction in blood-pressure
[2]
  reduction of epinephrine-induced arterial hypertension: reduced, at least partially, the epinephrine-induced arterial hypertension
[5]
  reduction of epinephrine-induced arterial hypertension at low dose: Long-lasting and total reduction

## N-[3-(4-(4-chlorophenyl)-1-piperazinyl)-2-hydroxy-propyl]-N-methylsulphonyl-4-amino-phenylacetamide [Compound 99]
[2]
  reduction of epinephrine-induced arterial hypertension: reduced, at least partially, the epinephrine-induced arterial hypertension
